Assay results as given in PubChem BioAssay (NCI).
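Values below derive from 48-hour exposures of cells grown in 96-well plates, with endpoints linearly interpolated between the two concentrations bracketing the appropriate inhibition level. GI50: concentration for 50% inhibition of growth. At the TGI there is no net growth.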

How the values were obtained:
Test in all cases: NCI tumour cell line growth inhibition, 48 h
SW-620 colon = system: SW-620 colon
OVCAR-5 ovarian = system: OVCAR-5 ovarian
SF-539 CNS = system: SF-539 CNS
DU-145 prostate = system: DU-145 prostate
SF-295 CNS = system: SF-295 CNS
COLO 205 colon = system: COLO 205 colon
A549 NSCLC = system: A549 NSCLC
SN12C renal = system: SN12C renal
KM12 colon = system: KM12 colon
M14 melanoma = system: M14 melanoma
NCI-H522 lung = system: NCI-H522 lung
MOLT-4 leukemia = system: MOLT-4 leukemia
NCI-H226 lung = system: NCI-H226 lung
OVCAR-3 ovarian = system: OVCAR-3 ovarian
SK-OV-3 ovarian = system: SK-OV-3 ovarian
MDA-MB-435 = system: MDA-MB-435
ACHN renal = system: ACHN renal
HL-60(TB) leukemia = system: HL-60(TB) leukemia
OVCAR-4 ovarian = system: OVCAR-4 ovarian
HOP-62 NSCLC = system: HOP-62 NSCLC
PC-3 prostate = system: PC-3 prostate
NCI-H23 lung = system: NCI-H23 lung
HCT-15 colon = system: HCT-15 colon
A498 renal = system: A498 renal
EKVX NSCLC = system: EKVX NSCLC
MALME-3M melanoma = system: MALME-3M melanoma
RXF 393 renal = system: RXF 393 renal
IGROV1 ovarian = system: IGROV1 ovarian

`Cc1cc(C(O)CN(C)C)cc2c1ccc1cc(C(C)C)ccc12` (stereo not given) showed a TGI (SW-620 colon) of 3.5 µM, a GI50 (OVCAR-5 ovarian) of 2020 nM and a TGI (OVCAR-5 ovarian) of 4.36 µM. For the same molecule, the GI50 (SF-539 CNS) was 1980 nM, the TGI (SF-539 CNS) was 3.59 µM and the GI50 (DU-145 prostate) was 2190 nM. It also gave a TGI (DU-145 prostate) of 4.08 µM, a GI50 (SF-295 CNS) of 1850 nM and a TGI (SF-295 CNS) of 3.54 µM. The GI50 (COLO 205 colon) was 1730 nM, the TGI (COLO 205 colon) was 3.32 µM and the GI50 (A549 NSCLC) was 1930 nM. For the same molecule, the TGI (A549 NSCLC) was 3.54 µM, the GI50 (SN12C renal) was 3.19 µM and the TGI (SN12C renal) was 20.6 µM. The GI50 (KM12 colon) was 1820 nM, the TGI (KM12 colon) was 3.32 µM and the GI50 (M14 melanoma) was 2020 nM. The TGI (M14 melanoma) was 4.03 µM, the GI50 (NCI-H522 lung) was 1840 nM and the TGI (NCI-H522 lung) was 3.72 µM. For the same molecule, the GI50 (MOLT-4 leukemia) was 2160 nM, the TGI (MOLT-4 leukemia) was 5.22 µM and the GI50 (NCI-H226 lung) was 2660 nM. For the same molecule, the TGI (NCI-H226 lung) was 8.84 µM, the GI50 (OVCAR-3 ovarian) was 1920 nM and the TGI (OVCAR-3 ovarian) was 3.6 µM. The GI50 (SK-OV-3 ovarian) was 4.58 µM, the TGI (SK-OV-3 ovarian) was 20 µM and the GI50 (MDA-MB-435) was 1790 nM. The TGI (MDA-MB-435) was 3.64 µM, the GI50 (ACHN renal) was 1870 nM and the TGI (ACHN renal) was 3.65 µM. It also gave a GI50 (HL-60(TB) leukemia) of 1890 nM, a TGI (HL-60(TB) leukemia) of 4.08 µM and a GI50 (OVCAR-4 ovarian) of 2330 nM. For the same molecule, the TGI (OVCAR-4 ovarian) was 4.84 µM, the GI50 (HOP-62 NSCLC) was 1590 nM and the TGI (HOP-62 NSCLC) was 3.08 µM. The GI50 (PC-3 prostate) was 2240 nM, the TGI (PC-3 prostate) was 5.77 µM and the GI50 (NCI-H23 lung) was 2850 nM. It also gave a TGI (NCI-H23 lung) of 10.6 µM, a GI50 (HCT-15 colon) of 1810 nM and a TGI (HCT-15 colon) of 3.61 µM. It also gave a GI50 (A498 renal) of 2360 nM, a TGI (A498 renal) of 11.7 µM and a GI50 (EKVX NSCLC) of 3.39 µM. For the same molecule, the TGI (EKVX NSCLC) was 17.9 µM, the GI50 (MALME-3M melanoma) was 1920 nM and the TGI (MALME-3M melanoma) was 3.83 µM. It also gave a GI50 (RXF 393 renal) of 1780 nM, a TGI (RXF 393 renal) of 3.36 µM and a GI50 (IGROV1 ovarian) of 1850 nM. It also gave a TGI (IGROV1 ovarian) of 3.8 µM.
